How the values were obtained:
[1] = tested on: hIL-6 mRNA; experiment: Quantification of hIL-6 mRNA; type: cell-based, human; design: key: Active: an active compound is one that causes a ≥20% inhibition in IL-6 mRNA at a concentration less than or equal to 10 μM; conditions: IL-6 mRNA by real-time PCR; differentiated U937 cells, 1 h pretreatment, lipopolysaccharide stimulation 3 h; concentration ≤10 μM
Procedure, shortened: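 U937 cells, differentiated for 3 days, were pretreated with compound for 1 h and then stimulated with E. coli LPS for 3 h at 37 °C. IL-6 mRNA was quantified by one-step qRT-PCR, with Ct normalized to an internal control, and fold induction was expressed relative to control.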

[2] = tested on: VCAM-1 mRNA; experiment: Quantification of hVCAM mRNA; type: cell-based, human; design: key: Active: an active compound is one that causes a ≥20% inhibition in VCAM-1 mRNA at a concentration less than or equal to 10 μM; -1 mRNA at a concentration less than or equal to 10 μM; conditions: VCAM-1 mRNA by real-time PCR; HUVECs, 1 h pretreatment, tumor necrosis factor-α stimulation 24 h; concentration ≤10 μM
Procedure, shortened: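 HUVECs were pretreated 1 h with compound, then stimulated with TNF-α and harvested 24 h later. Isolated mRNA went into one-step qRT-PCR. hVCAM Ct values were normalized to an internal control and expressed as fold induction relative to control.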

Structure (SMILES) | melting point | Inhibition of IL-6 expression [1] | Inhibition of VCAM-1 expression [2]
COCCOc1cc(OCCOC)c2c(=O)[nH]c(-c3cc(C)nc(C)c3)nc2c1 [2-(2,6-Dimethylpyridin-4-yl)-5,7-bis(2-methoxyethoxy)quinazolin-4(3H)-one] | 149.8 to 151.4 °C | Active | Active
COc1cc(OCCN2CCCC2)cc2nc(-c3cc(C)nc(C)c3)[nH]c(=O)c12 [2-(2,6-Dimethylpyridin-4-yl)-5-methoxy-7-(2-(pyrrolidin-1-yl)ethoxy)quinazolin-4(3H)-one] | 227 to 229 °C | Active | Inactive
COc1cc(OCCOc2ccccc2)cc2nc(-c3cc(C)nc(C)c3)[nH]c(=O)c12 [2-(2,6-Dimethylpyridin-4-yl)-5-methoxy-7-(2-phenoxyethoxy)quinazolin-4(3H)-one] | 223 to 224 °C | Active | Active
Cc1cc(-c2nc3ccc(CCN4CCCC4)cc3c(=O)[nH]2)cc(C)n1 [2-(2,6-Dimethylpyridin-4-yl)-6-(2-(pyrrolidin-1-yl)ethyl)quinazolin-4(3H)-one] | 212.3 to 213.2 °C | Active | Active
Cc1cc(-c2nc3ccc(CCN4CCOCC4)cc3c(=O)[nH]2)cc(C)n1 [2-(2,6-Dimethylpyridin-4-yl)-6-(2-morpholinoethyl)quinazolin-4(3H)-one] | 248.5 to 249.3 °C | Active | Inactive
COc1cc(OCCOC(C)C)cc2nc(-c3cc(C)nc(C)c3)[nH]c(=O)c12 [2-(2,6-Dimethylpyridin-4-yl)-7-(2-isopropoxyethoxy)-5-methoxyquinazolin-4(3H)-one] | 188 to 189 °C | Active | Active
COCCOc1cc(OCCN2CCCC2)c2c(=O)[nH]c(-c3cc(C)nc(C)c3)nc2c1 [2-(2,6-Dimethylpyridin-4-yl)-7-(2-methoxyethoxy)-5-(2-(pyrrolidin-1-yl)ethoxy)quinazolin-4(3H)-one] | 60.4 to 62.3 °C | Active | Active
COc1cc(OCCN2CCCC2)c2c(=O)[nH]c(-c3cc(C)nc(C)c3)nc2c1 [2-(2,6-Dimethylpyridin-4-yl)-7-methoxy-5-(2-(pyrrolidin-1-yl)ethoxy)quinazolin-4(3H)-one] | 190 to 191 °C | Active | Active
COc1cc(OCCOc2ccccc2)c2c(=O)[nH]c(-c3cc(C)nc(C)c3)nc2c1 [2-(2,6-Dimethylpyridin-4-yl)-7-methoxy-5-(2-phenoxyethoxy)quinazolin-4(3H)-one] | 172.3 to 173.2 °C | Active | Active
Cc1cc(-c2nc3cc(OCCOC(C)C)cc(OCCOC(C)C)c3c(=O)[nH]2)cc(C)n1 [2-(2,6-dimethylpyridin-4-yl)-5,7-bis(2-isopropoxyethoxy)quinazolin-4(3H)-one] | 124 to 125 °C | Active | Active

More lines, main results first:

melting point | Structure (SMILES) | Inhibition of IL-6 expression [1] | Inhibition of VCAM-1 expression [2]
267 to 268 °C | Cc1cc(-c2nc3ccc(CN4CCOCC4)cc3c(=O)[nH]2)ccn1 [2-(2-methylpyridin-4-yl)-6-(morpholinomethyl)quinazolin-4(3H)-one] | Active | Inactive
289 to 290 °C | COc1cc(OC)cc(-c2nc3ccc(Nc4ccncc4)cc3c(=O)[nH]2)c1 [2-(3,5-Dimethoxyphenyl)-6-(pyridin-4-ylamino)quinazolin-4(3H)-one] | Active | Inactive
180 to 182 °C | COc1cc(OC)c2c(=O)[nH]c(-c3cc(C)c(OCCN4CCN(C)CC4)c(C)c3)nc2c1 [2-(3,5-Dimethyl-4-(2-(4-methylpiperazin-1-yl)ethoxy)phenyl)-5,7-dimethoxyquinazolin-4(3H)-one] | Active | Active
228 to 230 °C | COc1cc(OC)c2c(=O)[nH]c(-c3cc(C)c(OCCN4CCCC4)c(C)c3)nc2n1 [2-(3,5-Dimethyl-4-(2-(pyrrolidin-1-yl)ethoxy)phenyl)-5,7-dimethoxypyrido[2,3-d]pyrimidin-4(3H)-one] | Active | Active
157 to 158 °C | COc1cccc2nc(-c3cc(C)c(OCCN4CCCC4)c(C)c3)[nH]c(=O)c12 [2-(3,5-Dimethyl-4-(2-(pyrrolidin-1-yl)ethoxy)phenyl)-5-methoxyquinazolin-4(3H)-one] | Active | Active
201.2 to 203.1 °C | COc1ccc2nc(-c3cc(C)c(OCCN4CCCC4)c(C)c3)[nH]c(=O)c2c1 [2-(3,5-Dimethyl-4-(2-(pyrrolidin-1-yl)ethoxy)phenyl)-6-methoxyquinazolin-4(3H)-one] | Active | Active
218 to 220 °C | COc1ccc2c(=O)[nH]c(-c3cc(C)c(OCCN4CCCC4)c(C)c3)nc2c1 [2-(3,5-Dimethyl-4-(2-(pyrrolidin-1-yl)ethoxy)phenyl)-7-methoxyquinazolin-4(3H)-one] | Active | Active
231 to 232 °C | COc1cccc2c(=O)[nH]c(-c3cc(C)c(OCCN4CCCC4)c(C)c3)nc12 [2-(3,5-Dimethyl-4-(2-(pyrrolidin-1-yl)ethoxy)phenyl)-8-methoxyquinazolin-4(3H)-one] | Active | Active
194 to 196 °C | COc1cc(OC)c2c(=O)[nH]c(-c3cc(C)c(CCCN4CCCC4)c(C)c3)nc2c1 [2-(3,5-Dimethyl-4-(3-(pyrrolidin-1-yl)propyl)phenyl)-5,7-dimethoxyquinazolin-4(3H)-one] | Active | Active
226 to 227 °C | COc1cc(OC)c2c(=O)[nH]c(-c3ccc(OCCN4CCCC4)cc3)nc2c1 [5,7-Dimethoxy-2-(4-(2-(pyrrolidin-1-yl)ethoxy)phenyl)quinazolin-4(3H)-one] | Active | –
216 to 217 °C | Cc1cc(-c2nc3c(Cl)cccc3c(=O)[nH]2)cc(C)c1OCCN1CCCC1 [8-Chloro-2-(3,5-dimethyl-4-(2-(pyrrolidin-1-yl)ethoxy)phenyl)quinazolin-4(3H)-one] | Active | –
111.8 to 113.6 °C | COc1cc(OC)c2c(=O)[nH]c(-c3cc(C)c(OCCN4CC(NC(C)=O)C4)c(C)c3)nc2c1 [N-(1-(2-(4-(5,7-Dimethoxy-4-oxo-3,4-dihydroquinazolin-2-yl)-2,6-dimethylphenoxy)ethyl)azetidin-3-yl)acetamide] | Active | –

From patent publication US11407719B2, “Anti-inflammatory agents” (Resverlogix Corp., priority 2009, dated 2022)
